Results as given in ChEMBL document CHEMBL1121912, “Purine acyclic nucleosides. Nitrogen isosteres of 9-[(2-hydroxyethoxy)methyl]guanine as candidate antivirals” (J Med Chem, 1981).
pIC50: −log10 of the molar value. The source made the active and inactive calls. The rule behind the calls is not given here.

What was measured:
Format in all cases: functional, organism-based
Human alphaherpesvirus 1 [1] = assay: The compound was tested for plaque inhibition in HSV-1 in cell culture; - = in active at 50 ug per disk
Human alphaherpesvirus 1 [2] = assay: The compound was tested for plaque inhibition in HSV-1 in cell culture, activity is determined by plaque reduction assay
Human alphaherpesvirus 1 [3] = assay: The compound was tested for plaque inhibition in HSV-1 in cell culture; +=active at 50 ug per disk

SMILES	Plaque inhibition result (Human alphaherpesvirus 1 [1])	pIC50 (Human alphaherpesvirus 1 [2])	Plaque inhibition result (Human alphaherpesvirus 1 [3])
NCCOCCOCn1cnc2c(O)nc(N)nc21	inactive	–	–
Nc1nc2c(ncn2COCCO)c(=O)[nH]1 [ACYCLOVIR]	–	7.00	active at 50 ug per disk
CC(=O)NCCOCn1cnc2c(O)nc(N)nc21	inactive	–	–
NCCOCn1cnc2c(O)nc(N)nc21	–	5.10	active at 50 ug per disk
Nc1nc(O)c2ncn(COCCNCCO)c2n1	inactive	–	–
NCCOCn1cnc2c(N)nc(N)nc21	inactive	–	–
